In one experiment the target is T1, 5 HT2C receptor (Homo sapiens, UniProt P28335).
T1 sequence (P28335 33-458): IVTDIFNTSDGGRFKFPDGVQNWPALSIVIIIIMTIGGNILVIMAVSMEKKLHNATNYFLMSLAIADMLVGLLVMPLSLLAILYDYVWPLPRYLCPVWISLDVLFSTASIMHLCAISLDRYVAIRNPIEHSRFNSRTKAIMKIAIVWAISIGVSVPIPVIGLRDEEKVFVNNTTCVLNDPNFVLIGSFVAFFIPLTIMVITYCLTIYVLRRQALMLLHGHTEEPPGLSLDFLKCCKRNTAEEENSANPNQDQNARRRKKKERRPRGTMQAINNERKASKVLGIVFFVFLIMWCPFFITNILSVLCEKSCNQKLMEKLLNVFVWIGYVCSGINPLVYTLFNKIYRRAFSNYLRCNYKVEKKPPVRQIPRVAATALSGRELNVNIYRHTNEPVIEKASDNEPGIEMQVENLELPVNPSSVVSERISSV
The experiment is described as follows: affinity to the 5 HT2C receptor. The format is binding.

Another experiment deals with 5-HT2A receptors (Rattus norvegicus, UniProt P14842). The experiment is described as follows: in-vitro affinity to 5-HT2A receptors, displacement of [3H]ketanserine (Example A1). The format is binding. As to conditions: read-out: HT2A IC50. The source says: The 5-HT2A receptors are exposed both to [^3H]ketanserine (a substance which is known for its affinity to the receptor) and also to the test compound. The decrease in the affinity of [^3H]ketanserine to the receptor is an indication of the affinity of the test substance to the 5-HT2A receptor.
In general terms: Loss of bound radioactivity is the signal in a displacement assay; it reports binding, not function.

Sequence of 5-HT2A receptors (P14842 whole entry): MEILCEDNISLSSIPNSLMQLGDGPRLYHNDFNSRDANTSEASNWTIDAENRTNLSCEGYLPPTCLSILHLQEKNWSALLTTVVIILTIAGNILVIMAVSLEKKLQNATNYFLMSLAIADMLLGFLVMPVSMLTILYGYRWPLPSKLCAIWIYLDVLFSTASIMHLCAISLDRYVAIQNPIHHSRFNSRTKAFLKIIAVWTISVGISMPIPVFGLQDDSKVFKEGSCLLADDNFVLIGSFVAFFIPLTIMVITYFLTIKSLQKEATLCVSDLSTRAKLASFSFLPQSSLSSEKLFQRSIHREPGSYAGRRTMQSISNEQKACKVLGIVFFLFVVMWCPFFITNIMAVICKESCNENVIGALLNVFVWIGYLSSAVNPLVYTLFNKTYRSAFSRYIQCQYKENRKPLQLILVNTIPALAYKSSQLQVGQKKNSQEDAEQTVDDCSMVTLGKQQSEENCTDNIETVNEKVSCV

By IC50 is commonly meant the point on the concentration scale where inhibition reaches its midpoint. Turning to `CCN1CCN(CCc2cnn(-c3ccc(-c4ccc(F)cc4)cc3)c2-c2ccccc2F)CC1` [Example 928, 1-Ethyl-4-{2-[1-(4′-fluorobiphenyl-4-yl)-5-(2-fluorophenyl)-1H-pyrazol-4-yl]ethyl}piperazine], the figures for the IC50 on 5 HT2C receptor and at 5-HT2A receptors were 1300 nM and 28 nM, respectively.
Take `c1ccc(-c2ccc(-n3ncc(CNCc4ccccn4)c3-c3ccccc3)cc2)cc1` [Example 918, (1-Biphenyl-4-yl-5-phenyl-1H-pyrazol-4-yl-methyl)pyridin-2-ylmethylamine]: the figures for the IC50 against 5 HT2C receptor and on 5-HT2A receptors were 1000 nM and 23 nM, respectively.
The corresponding values for `OC1CCN(CCc2cnn(-c3ccc(-c4ccc(F)cc4)cc3)c2-c2ccccc2F)C1` (stereo not drawn) [Example 913, 1-{2-[1-(4′-Fluorobiphenyl-4-yl)-5-(2-fluoro-phenyl)-1H-pyrazol-4-yl]ethyl}pyrrolidin-3-ol] are 620 nM and 20 nM.
With `CN1CCN(Cc2cnn(-c3ccc(-c4cc(F)ccc4F)cc3)c2-c2ccccc2)CC1` [Example 981, 1-[1-(2′,5′-Difluorobiphenyl-4-yl)-5-phenyl-1H-pyrazol-4-ylmethyl]-4-methylpiperazine], the 50% inhibitory concentration (IC50) against 5 HT2C receptor was 1000 nM; at 5-HT2A receptors, 110 nM.
The corresponding values for `CC(C)N1CCN(Cc2cnn(-c3ccc(-c4ccc(F)cc4)cc3)c2-c2ccccc2Cl)CC1` [Example 997, 1-[5-(2-Chlorophenyl)-1-(4′-fluoro-biphenyl-4-yl)-1H-pyrazol-4-ylmethyl]-4-isopropylpiperazine] are 1000 nM and 160 nM.
The corresponding values for `CCN(CC)Cc1cnn(-c2ccc(-c3ccc(F)cc3)cc2)c1-c1ccccc1Cl` [Example 951, [5-(2-Chlorophenyl)-1-(4′-fluoro-biphenyl-4-yl)-1H-pyrazol-4-ylmethyl]diethylamine] are 1000 nM and 53 nM.
The corresponding values for `Cn1ccnc1CNCc1cnn(-c2ccc(-c3ccccc3)cc2)c1-c1ccccc1` [Example 942, (1-Biphenyl-4-yl-5-phenyl-1H-pyrazol-4-yl-methyl)-(1-methyl-1H-imidazol-2-ylmethyl)-amine] are 1000 nM and 39 nM.
As to `CCN(CC)Cc1cnn(-c2ccc(-c3ccccc3)cc2)c1-c1ccccc1F` [Example 897, [1-Biphenyl-4-yl-5-(2-fluorophenyl)-1H-pyrazol-4-ylmethyl]diethylamine], the figures for the IC50 against 5 HT2C receptor and on 5-HT2A receptors were 1000 nM and 11 nM, respectively.
The corresponding values for `CN1CCC(N(C)Cc2cnn(-c3ccc(-c4ccccc4)cc3)c2-c2ccccc2F)C1` (stereo not drawn) [Example 907, [1-Biphenyl-4-yl-5-(2-fluorophenyl)-1H-pyrazol-4-ylmethyl]methyl-(1-methylpyrrolidin-3-yl)amine] are 84 nM and 16 nM.
The corresponding values for `Fc1ccccc1-c1c(CN2CCc3ccccc3C2)cnn1-c1ccc(-c2ccccc2)cc1` [Example 964, 2-[1-Biphenyl-4-yl-5-(2-fluoro-phenyl)-1H-pyrazol-4-ylmethyl]-1,2,3,4-tetrahydro-iso-quinoline] are 1000 nM and 70 nM.
`CC(C)c1ccc(-c2ccc(-n3ncc(CN4CCN(C)CC4)c3-c3ccccc3F)cc2)cc1` [Example 958, 1-[5-(2-Fluorophenyl)-1-(4′-isopropylbiphenyl-4-yl)-1H-pyrazol-4-ylmethyl]-4-methyl-piperazine]: the results for the IC50 on 5 HT2C receptor and on 5-HT2A receptors were 830 nM and 58.1 nM, respectively.
The corresponding values for `NCCNCc1cnn(-c2ccc(-c3ccccc3)cc2)c1-c1ccccc1F` [Example 894, N-[1-Biphenyl-4-yl-5-(2-fluorophenyl)-1H-pyrazol-4-ylmethyl]ethane-1,2-diamine] are 450 nM and 6.5 nM.
The corresponding values for `CN(C)Cc1cnn(-c2ccc(-c3ccccc3)cc2)c1-c1ccccc1F` [Example 914, [1-Biphenyl-4-yl-5-(2-fluorophenyl)-1H-pyrazol-4-ylmethyl]dimethylamine] are 450 nM and 21 nM.
The corresponding values for `CC(C)N1CCN(Cc2cnn(-c3ccc(-c4ccc(F)cc4)cc3)c2-c2cccc(Cl)c2)CC1` [Example 943, 1-[5-(3-Chlorophenyl)-1-(4′-fluorobiphenyl-4-yl)-1H-pyrazol-4-ylmethyl]-4-isopropylpiperazine] are 1000 nM and 41 nM.
Take `CCN1CCN(Cc2cnn(-c3ccc(-c4ccccc4)cc3)c2-c2ccccc2F)CC1` [Example 927, 1-[1-Biphenyl-4-yl-5-(2-fluoro-phenyl)-1H-pyrazol-4-ylmethyl]-4-ethylpiperazine]: the figures for the IC50 against 5 HT2C receptor and on 5-HT2A receptors were 1000 nM and 28 nM, respectively.

The values are drawn from patent publication US20060264419A1 (priority 2003, published 2006).
